The values that follow come from paper PMC12190436, “5-Ene-2-arylaminothiazol-4(5H)-ones Induce Apoptosis in Breast Cancer Cells” (Cells, 2025).

The subject of one test is MCF-7 cells. The test is described as follows: Annexin V-FITC/propidium iodide flow cytometry. Format: cell-based, human. Particulars: 24 h. As for the experimental part:
The MCF-7 cells were seeded on 6-well plates (1 × 10^5 cells per well) and incubated for 24 h. Afterwards, the cells were washed, and tested compounds (Les-6416, Les-6418, Les-6381, Les-6423, and Les-6424) were added in a concentration of 5 µM. The reference drug doxorubicin hydrochloride was applied in a concentration of 0.5 µM. The cells were incubated with the compounds for 24 h. Afterwards, the cells were washed several times with cold PBS and the cell suspensions were prepared in the binding buffer from the kit at a concentration of 1 × 10^6 cells/mL. A total of 100 µL of suspension was collected from each sample and transferred to the tubes. After that, 5 µL of Annexin V-FITC and 5 µL of propidium iodide were added. After 15 min of incubation at room temperature in a dark environment, the content of the tubes was filled with binding buffer up to 500 µL and assessed by BD FACSCanto II flow cytometer (Becton Dickinson Biosciences, San Jose, CA, USA). A total of 1 × 10^4 events were measured for each sample. The results were investigated by applying FACSDiva software Version 6.1.3. (BD Biosciences Systems, San Jose, CA, USA).
To assess the effects of novel compounds on apoptosis, we utilized flow cytometry analysis with Annexin V-FITC and Propidium Iodide double staining. In this way, we could distinguish between different cell populations based on their state: unstained or alive cells, cells stained with propidium iodide or necrotic cells, cells only stained with FITC-labeled annexin V or early apoptotic cells, and cells stained with both annexin V and propidium iodide or late apoptotic cells.

The next test has as its system T98G. The test is described as follows: MTT cell viability assay. Particulars: Homo sapiens. Format: cell-based. The source says: (§1) All of the tested cell lines were acquired from the American Type Culture Collection (ATCC, Manassas, VA, USA), including human breast cancer cell lines (MCF-7, MDA-MB-231), human gastric cancer cell line (AGS), human colorectal cancer cell lines (HT-29, DLD-1), human glioblastoma cancer cell lines (T98G, A172), mouse astrocyte type I clone (C8-D1A), human normal epithelial breast cells (MCF-10A) and primary dermal fibroblast (HDFa). Such cell lines as AGS, MCF-7, MDA-MB-231, A172, T98G, C8-D1A, and primary dermal fibroblast (HDFa) were cultured in complete medium–DMEM (Corning, Kennebunk, ME, USA). RPMI-1640 (ATCC, Manassas, VA, USA) was used for the DLD-1 cell line, and McCoy’s 5A (PAN-Biotech, Aidenbach, Germany) for the HT-29 cell line. To all utilized media additionally was added 10% fetal bovine serum (FBS) (Eurx, Gdansk, Poland) and 1% penicillin and streptomycin solution (Corning, Kennebunk, ME, USA). MCF-10A cells were incubated in MEGM (Mammary Epithelial Cell Growth Medium) BulletKit supplemented with penicillin/streptomycin cocktail and 5% horse serum. All cells were cultured at 37 °C in an atmosphere with 5% CO₂ in tissue culture dishes (Sarstedt, Numbrecht, Germany). For experiments, cells were washed with phosphate-buffered saline (PBS) (Corning, Kennebunk, ME, USA) followed by the addition of 0.05% trypsin with 0.02% EDTA (Corning, Kennebunk, ME, USA). Scepter 3.0 cell counter (Merck Millipore, Burlington, MA, USA) was applied before each seeding to calculate the number of cells. For the next analyses, cells were reseeded in 6-well plates, 24-well plates, and 96-well plates.
(§2) MTT (3-(4,5-dimethylthiazol-2-yl)-2,5-diphenyltetrazolium bromide) assay method was utilized to analyze compound effects on cell viability. All cell lines were seeded in 96-well plates with 1 × 10^4 cells per well. After 24 h, cells were treated with the tested compounds and reference drug at concentrations of 0.1, 1, 2.5, 5, 10, and 20 µM for 24, 48, or 72 h. Next, a solution of 3-(4,5-dimethyl-2-thiazolyl)-2,5-diphenyl-2H-tetrazolium bromide (Sigma-Aldrich, St. Louis, MO, USA) in PBS with a concentration of 5 mg/mL was prepared. After the incubation with tested compounds, 10 µL of the prepared MTT solution was applied to each well, followed by 2 h of incubation at 37 °C. Next, cells underwent lysis by adding 100 µL of pre-prepared lysing buffer (containing 25 mM HCl, 2% acetic acid, 3% DMF, and 5% SDS, with a pH of 4.7). The absorbance was measured using a UV-VIS Helios Gamma (Unicam/ThermoFisher Scientific Inc., Cleveland, OH, USA) at 570 nm wavelength. The cells incubated with vehicle substance (0.1% DMSO) were taken as controls.
(§3) To investigate the cytotoxic potential of the newly synthesized compounds, a comprehensive assessment was conducted utilizing the MTT assay. This assay was applied on a diverse panel of cell lines, such as human breast cancer cell lines (MCF-7 and MDA-MB-231), human gastric cancer cell line (AGS), human colorectal cancer cell lines (HT-29 and DLD-1), human glioblastoma cancer cell lines (T98G and A172), mouse astrocyte type I clone cells (C8-D1A), primary dermal fibroblast (HDFa), and human normal breast cells (MCF-10A) for 24, 48, and/or 72 h.
Background: Formazan colour is commonly taken as a measure of viable cells.

The subject of the next test is MCF-7. In words: MTT cell viability assay. Format: cell-based. Particulars: Homo sapiens.
Excerpt: as §1, §2, §3

The next test has as its system DLD-1. The test is described as follows: MTT cell viability assay. Format: cell-based. The following applies: Homo sapiens.
Excerpt: as §1, §2, §3

A further test relates to A172. The test is described as follows: MTT cell viability assay. Format: cell-based. Particulars: Homo sapiens.
Excerpt: as §1, §2, §3

The test system of the next test is HT-29. The test is described as follows: MTT cell viability assay. Format: cell-based. Particulars: Homo sapiens.
Excerpt: as §1, §2, §3

The next test has as its system AGS. The test is described as follows: MTT cell viability assay. Format: cell-based. The following applies: Homo sapiens.
Excerpt: as §1, §2, §3

Test [1] has as its system Primary Dermal Fibroblast (HDFa). In words: MTT cell viability assay. Format: cell-based. The following applies: Homo sapiens, normal cells.
Excerpt: as §1, §2, §3

In another test the test system is MDA-MB-231. In words: MTT cell viability assay. The following applies: Homo sapiens. Format: cell-based.
Excerpt: as §1, §2, §3

Structures are written as SMILES.

For the molecule `COc1cc(NC2=NC(=O)C(=Cc3ccco3)S2)cc(OC)c1OC` [Les-6424, 5-(Furan-2-ylmethylene)-2-((3,4,5-trimethoxyphenyl)amino)thiazol-4(5H)-one], the “proapoptotic effect in comparison to the control” value with MCF-7 cells (5 µM) was “did not have any statistically significant results”. Moreover, the viability at 5 µM in the test on MCF-7 cells (Homo sapiens, MCF7, 5 µM, read-out: Viable cells, cell population) stood at 90.4%. Also, the IC50 in the test with T98G (T98G 24 h) is > 20 µM; in the test on T98G (T98G 48 h), > 20 µM; with MCF-7 (MCF7, MCF-7 24 h), > 20 µM; in the test with MCF-7 (MCF7, MCF-7 48 h) it was > 20 µM; in the test with MCF-7 (MCF7, MCF-7 72 h), > 20 µM; in the test on DLD-1 (DLD-1 24 h) it was > 20 µM. In addition, the IC50 was > 20 µM in the test with DLD-1 (DLD-1 48 h); > 20 µM with A172 (A 172, A172 24 h); > 20 µM in the test with A172 (A 172, A172 48 h); > 20 µM in the test on HT-29 (HT-29 24 h); > 20 µM in the test with HT-29 (HT-29 48 h); > 20 µM in the test with AGS (AGS 24 h). The IC50 (in the test on AGS (AGS 48 h); in test [1] (HDFa 24 h); in test [1] (HDFa 48 h); in test [1] (HDFa 72 h); with MDA-MB-231 (MDA-MB-231 24 h); in the test on MDA-MB-231 (MDA-MB-231 48 h)) was > 20 µM in each case. In addition, the concentration for half-maximal inhibition (IC50) in the test with MDA-MB-231 (MDA-MB-231 72 h) was > 20 µM.

For orientation: IC50 means the concentration at which inhibition is half-maximal. Low values mean higher potency, high ones lower potency.
